The values that follow come from patent publication US20250052744A1, “Dyes and Uses Thereof” (The University of Liverpool, priority 2021, published 2025).

Common to all, as to experiment: Qualitative dye staining on agarose pads (EVOS M7000)
Common to all, as to format: cell-based
Holding throughout (set-up): key to Relative fluorescent intensity: Very high: If the cells looked twice as big in the fluorescent channel, it was marked as having “very high” relative fluorescent intensity; High: if the cells looked bigger in the fluorescent channel, it was marked as having “high” relative fluorescent intensity; Medium: If the cells looked almost the same size in the fluorescent channel and the bright field, it was marked as having “medium” relative fluorescent intensity; Low: If the cells looked smaller in the fluorescent channel as compared to the brightfield but still the whole cell was visible, it was marked as having “low” relative fluorescent intensity; Negligible: If only a few traces of a cell was visible in the fluorescent channel, it was marked as having “negligible” relative fluorescent intensity
Details in all cases: DiSC3(5) 3 μM, SYBR Green I 10×, SYTO 13 3 μM, FM4-64 15 μM

The subject of test [1] is Staphylococcus epidermis.
In test [2] the test system is Klebsiella oxytoca.
For test [3], the system named is Klebsiella pneumoniae.
Where [4] appears, read: Table 6 thresholds, Staphylococcus epidermis.
[5] abbreviates: Table 8 sample Staphylococcus epidermis (044).
Setting [6] is: Table 8 sample Staphylococcus epidermis (045).
Setting [7] is: Table 8 sample Staphylococcus epidermis (046).
[8] abbreviates: Table 8 sample Klebsiella oxytoca (091).
The mark [9] stands for this setting: Table 8 sample Klebsiella oxytoca (092).
[10] abbreviates: Table 8 sample Klebsiella oxytoca (093).
Where [11] appears, read: Table 7 commercial strain Klebsiella pneumoniae NCTC 9633.
The mark [12] stands for this setting: Table 7 commercial strain Klebsiella pneumoniae NCTC 14335.
[13] abbreviates: Table 8 sample Klebsiella pneumoniae (094).
Where [14] appears, read: Table 8 sample Klebsiella pneumoniae (095).

Turning to `CCCN(CCCN(C)C)c1cc(/C=C2/Sc3ccccc3N2C)c2ccccc2[n+]1-c1ccccc1` [SYBR Green I, N′,N′-dimethyl-N-[4-[(E)-(3-methyl-1,3-benzothiazol-2-ylidene)methyl]-1-phenylquinolin-1-ium-2-yl]-N-propylpropane-1,3-diamine], the “Percentage of cells stained” value in test [1] (setting [4]), in test [1] (setting [5]), in test [1] (setting [6]), in test [1] (setting [7]), in test [2] (setting [8]) and in test [2] (setting [9]) was “Almost all” throughout. For the same compound, the “Percentage of cells stained” value in test [2] (setting [10]) is “Half”; in test [3] (setting [11]) it was “Half”; in test [3] (setting [12]), “Almost all”; in test [3] (setting [13]), “Half”; in test [3] (setting [14]) it was “Almost all”. Besides, the Relative fluorescent intensity result in test [1] (setting [4]) is reported as “High”; in test [1] (setting [5]), “High”; in test [1] (setting [6]), “High”; in test [1] (setting [7]) it was “High”; in test [2] (setting [8]) it was “Low”; in test [2] (setting [9]) it was “Low”. The Relative fluorescent intensity entry in test [2] (setting [10]), in test [3] (setting [11]), in test [3] (setting [12]), in test [3] (setting [13]) and in test [3] (setting [14]) was “Low” each time.

In the case of `CCN(CC)c1ccc(C=CC=CC=Cc2cc[n+](CCC[N+](CC)(CC)CC)cc2)cc1.[Br-].[Br-]` [FM 4-64, N-(3-Triethylammoniumpropyl)-4-(6-(4-(Diethylamino) Phenyl) Hexatrienyl) Pyridinium Dibromide], the “Percentage of cells stained” value in test [1] (setting [4]) is “Almost all”; in test [1] (setting [5]) it was “Almost all”; in test [1] (setting [6]) it was “Almost all”; in test [1] (setting [7]), “Almost all”; in test [2] (setting [8]), “Few”; in test [2] (setting [9]) it was “Almost all”. For the same compound, the “Percentage of cells stained” value in test [2] (setting [10]) is reported as “Half”; in test [3] (setting [11]), “Few”; in test [3] (setting [12]), “Half”; in test [3] (setting [13]), “Few”; in test [3] (setting [14]) it was “Few”. Further, the Relative fluorescent intensity result in test [1] (setting [4]) was “Medium”; in test [1] (setting [5]) it was “Medium”; in test [1] (setting [6]) it was “Medium”; in test [1] (setting [7]), “Medium”; in test [2] (setting [8]) it was “Low”; in test [2] (setting [9]), “Low”. In addition, the Relative fluorescent intensity result in test [2] (setting [10]), in test [3] (setting [11]), in test [3] (setting [12]), in test [3] (setting [13]) and in test [3] (setting [14]) was “Low” in each case.

Take `CCCN1C(=CC=CC=Cc2sc3ccccc3[n+]2CCC)Sc2ccccc21.[I-]` [DiSC3(5), 3,3′-Dipropylthiadicarbocyanine Iodide]: the “Percentage of cells stained” value in test [1] (setting [4]), in test [1] (setting [5]), in test [1] (setting [6]), in test [1] (setting [7]), in test [2] (setting [8]) and in test [2] (setting [9]) was “Almost all” throughout. Moreover, the “Percentage of cells stained” value in test [2] (setting [10]) is listed as “Half”; in test [3] (setting [11]), “Half”; in test [3] (setting [12]), “Almost all”; in test [3] (setting [13]), “Half”; in test [3] (setting [14]), “Almost all”. Moreover, the Relative fluorescent intensity result was “Very high” in test [1] (setting [4]); “Very high” in test [1] (setting [5]); “Very high” in test [1] (setting [6]); “Very high” in test [1] (setting [7]); “Medium” in test [2] (setting [8]); “Low” in test [2] (setting [9]). Also, the Relative fluorescent intensity entry in test [2] (setting [10]), in test [3] (setting [11]), in test [3] (setting [12]), in test [3] (setting [13]) and in test [3] (setting [14]) was “Low” throughout.
